Source: US20220047552A1, “RAF-1 KINASE INHIBITOR COMPOUNDS FOR SKELETAL MUSCLE MODULATION, METHODS AND USES THEREOF” (SOCIETE DES PRODUITS NESTLE S.A., priority 2018, published 2022)

Assays:
[1] = tested on: human primary muscle cells; experiment: Assay for myogenesis (troponin-T myotube detection); type: cell-based; conditions: human primary myoblasts, differentiation medium, 96 hours, dose dependent response
Source text: In order to confirm the results from the primary assay described above, a secondary assay for myogenesis in vitro on all the hits obtained in this primary screening assay. This secondary assay focused on the later stage of myogenesis when the muscle cells fuse together and form multinucleated myotubes. This assay was based on the detection of the mature troponin-T protein that is expressed in myotubes. In particular, two measurements were made: Fusion factor, which is the % of nuclei that are inside the multinucleated myotubes compare to total nuclei and give a readout for muscle cell differentiation. Myotube area, which is measured based on the Troponin T staining and give a readout on the myotube size and muscle fiber growth. Human primary myoblasts were seeded in 384 well plates at a density of 3'000 cells per well in skeletal muscle growth medium (SKM-M, AMSbio). After one day, the differentiation is induced by a medium change. For treatment, compounds were directly added to the myoblast cultures for 96 hours. Myotubes were stained for TroponinT expression using antibodies directed against TroponinT and counterstained with Hoechst 33342 to visualize cell nuclei. Image acquisition was performed using the ImageXpress (Molecular Devices) platform. Custom module analysis based on Multi-Wavelength Cell Scoring of the MetaXpress software was used for quantification.

[2] = tested on: human primary muscle stem cells; experiment: Assay for muscle stem cell commitment (Pax7/MyoD immunofluorescence high content screening); type: cell-based; conditions: human primary myoblasts, 96 hours
Source text: The inventors developed a high content screening to test in vitro compounds on human primary adult muscle cells. Human Skeletal Muscle Myoblasts (HSMM) were purchased from Lonza (https://bioscience.lonza.com). These cells were isolated from the upper arm or leg muscle tissue of normal donors and used after the second passage. Several donors have been tested to ensure cell viability and purity before selecting the final donor which was a person. The primary screening assay was based on the high content detection of two important myogenic regulatory factors (Pax7 and MyoD) by immunofluorescence. Pax7 and MyoD are the major hallmarks of muscle stem cell stemness and commitment and can be used to monitor muscle stem cell progeny. In particular, Pax7 marks early amplification while MyoD is a later marker for myogenic commitment, and combinations of these markers define the different states of proliferation, differentiation and self-renewal. […] Human primary myoblasts were seeded in 384 well plates at a density of 1'000 cells per well in skeletal muscle growth medium (SKM-M, AMSbio). For treatment, compounds were directly added to the myoblast cultures 16 hours after initial plating. All cultures were then grown for 96 hours. […] Custom module analysis based on Multi-Wavelength Cell Scoring of the MetaXpress software was used for quantification.

## O=C1Nc2ccc(I)cc2C1=Cc1cc(Br)c(O)c(Br)c1 [GW5074, 3-(3,5-Dibromo-4-hydroxy-benzylidene)-5-iodo-1,3-dihydro-indol-2-one]
[1]; FIG. 2A
  myogenic differentiation (Fusion Factor, percent nuclei within troponinT-positive myotubes): enhanced myogenic differentiation
[1]; FIG. 2B
  myofiber growth (area covered by troponinT-positive myotubes): enhanced
[2]; FIG. 1A, dose-dependent response, MyoD+ = Pax7-/MyoD+
  proportion of MyoD+ cells as percent of total cell number (myogenic commitment): increase in the proportion of MyoD+ cells
[2]; FIG. 1B, dose dependent response, Pax7+ regardless of MyoD expression
  number of Pax7+ cells (expansion of muscle stem cells): increase in Pax7+ cells
